Results taken from patent publication US20200230074A1, “NICOTINE-CONTAINING TRANSPARENT TRANSDERMAL THERAPEUTIC SYSTEM” (LTS Lohmann Theraple-Systeme AG, priority 2017, published 2020).

Tests used:
[1] = Analysis of nicotine degradation products in stored samples; format: physicochemical; conditions: conclusion from degradation products
Procedure: In order to check which decomposition products of nicotine cause the brown colour, sample Nic 0007 was analysed.

[2] = Storage of nicotine Eudragit E 100 solutions with antioxidants, visual colour (Pantone Colour Code); format: physicochemical; conditions: stored in the dark 4 weeks at 60° C. or 80° C.
Text: Since polyisobutylenes contain terminal double bonds and therefore have to be stabilised by the antioxidant butyl hydroxytoluene, it was examined whether the avoidance of nicotine discolouration can be achieved by antioxidants. Pharmaceutically acceptable antioxidants were therefore added to nicotine in graded-concentrations in 2 test series to form solutions of Eudragit E 100 (cationic copolymer based on dimethylaminoethyl methacrylate, butyl methacrylate and methyl methacrylate in a ratio of 2:1:1). These solutions were stored in the dark for 4 weeks at 60° C. or 80° C.
Butyl hydroxytoluene (BHT), ascorbyl palmitate and tocopherol were tested as antioxidants.
The samples were examined visually after storage, and the relevant Pantone Colour Code for the colour of the sample was determined. The Pantone Colour Code is an internationally used colour system developed by the company Pantone LLC, USA. As a result it is possible to determine that the antioxidants were unable to suppress the discolouration of the nicotine.

For `CCCCCCCCCCCCCCCC(=O)OC[C@H](O)[C@H]1OC(=O)C(O)=C1O` [ascorbyl palmitate], the decomposition of nicotine [1] was “does prevent its decomposition” and the “suppression of the discolouration of nicotine” value [2] was “does not prevent the brown colouration of nicotine”.
